The supplement of paper PMC10307832

Legend:
Test in all cases: relative viability (nuclei count vs DMSO), 5 days (fraction); higher = more cells survive
Linsitinib + Pictilisib = compound: C[C@]1(O)C[C@@H](c2nc(-c3ccc4ccc(-c5ccccc5)nc4c3)c3c(N)nccn32)C1 [Linsitinib] + CS(=O)(=O)N1CCN(Cc2cc3nc(-c4cccc5[nH]ncc45)nc(N4CCOCC4)c3s2)CC1 [Pictilisib] (partner 1 µM)
In short: (§1)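 Relative viability divides the nuclei count in treated wells by that in vehicle wells. Lung cancer cell lines were seeded in 1536-well plates, dosed by pin tool the next day, and fixed and stained after 5 days in one step with final 0.05% Triton X-100, 1% formaldehyde and 1 ug/ml Hoechst. Dosing was a single drug or a fixed anchor-drug dose plus five library-drug doses (not always all listed) in √10 steps, and values are medians of duplicate plates imaged at 4×.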

Ispinesib + Trametinib = compound: Cc1ccc(C(=O)N(CCCN)[C@@H](c2nc3cc(Cl)ccc3c(=O)n2Cc2ccccc2)C(C)C)cc1 [Ispinesib] + CC(=O)Nc1cccc(-n2c(=O)n(C3CC3)c(=O)c3c(Nc4ccc(I)cc4F)n(C)c(=O)c(C)c32)c1 [Trametinib] (partner 0.02 µM)
In short: as §1

Linsitinib + Olaparib = compound: C[C@]1(O)C[C@@H](c2nc(-c3ccc4ccc(-c5ccccc5)nc4c3)c3c(N)nccn32)C1 [Linsitinib] + O=C(c1cc(Cc2n[nH]c(=O)c3ccccc23)ccc1F)N1CCN(C(=O)C2CC2)CC1 [Olaparib] (partner 8 µM)
In short: as §1

Linsitinib + Crizotinib = compound: C[C@]1(O)C[C@@H](c2nc(-c3ccc4ccc(-c5ccccc5)nc4c3)c3c(N)nccn32)C1 [Linsitinib] + C[C@@H](Oc1cc(-c2cnn(C3CCNCC3)c2)cnc1N)c1c(Cl)ccc(F)c1Cl [Crizotinib] (partner 1 µM)
In short: as §1

UMC-11
relative viability (Linsitinib + Pictilisib; first compound 0.01 µM): 0.786 | relative viability (Linsitinib + Pictilisib; first compound 0.03162 µM): 0.735 | relative viability (Linsitinib + Pictilisib; first compound 0.1 µM): 0.834 | relative viability (Linsitinib + Pictilisib; first compound 1 µM): 0.691 | relative viability (Ispinesib + Trametinib; first compound 0.001 µM): 0.685 | relative viability (Ispinesib + Trametinib; first compound 0.003162 µM): 0.701 | relative viability (Ispinesib + Trametinib; first compound 0.01 µM): 0.495 | relative viability (Ispinesib + Trametinib; first compound 0.03162 µM): 0.238 | relative viability (Ispinesib + Trametinib; first compound 0.1 µM): 0.309 | relative viability (Linsitinib + Olaparib; first compound 0.01 µM): 0.361 | relative viability (Linsitinib + Olaparib; first compound 0.03162 µM): 0.352 | relative viability (Linsitinib + Olaparib; first compound 0.1 µM): 0.421 | relative viability (Linsitinib + Olaparib; first compound 0.3162 µM): 0.273 | relative viability (Linsitinib + Olaparib; first compound 1 µM): 0.329 | relative viability (Linsitinib + Crizotinib; first compound 0.01 µM): 0.698 | relative viability (Linsitinib + Crizotinib; first compound 0.03162 µM): 0.448 | relative viability (Linsitinib + Crizotinib; first compound 0.1 µM): 0.642 | relative viability (Linsitinib + Crizotinib; first compound 1 µM): 0.549
